Results reported in article PMC5729604, “Dual inhibitors of hepatitis C virus and hepatocellular carcinoma: design, synthesis and docking studies” (Future Science OA, 2017).
“Also recorded” adds a separate entry of the source.

Assays:
[1] = test system: HepG2 cells infected with hepatitis C virus; experiment: In vitro anti-HCV screening, qualitative RT-PCR of viral RNA; format: cell-based, HCV genotype-4; settings: for in vitro anti-HCV activity, in words: HCV-infected HepG2 cells, RT-PCR; for Result (anti-HCV screening): at the used dose (below LD0 on HepG2 and PBMCs), 72 h, Positive = disappearance of viral RNA-amplified product (174 bp)
Description: The safe compounds on RBCs (5a-g, 5i-l, 5p-r, 5v-w, 6b-g) were screened for their in vitro anti-HCV activity using the HCC HepG2 cell line infected with the HCV. Monitoring of the HCV viremia pre- and post-antiviral therapy through the detection of viral RNA using qualitative reverse transcription-PCR (RT-PCR) was adopted in the present investigation. This technique was reported to be the most frequently used, reliable and sensitive technique. Inhibition of viral replication was detected by amplification of viral RNA segments by the RT-PCR technique both in the cultivated infected cells alone (as a positive control) and at the specified dose for each test compound at optimal temperature. The test compound was considered to be active when it can inhibit the viral replication inside the HCV-infected HepG2 cells, as evidenced by the disappearance of the viral RNA-amplified products detected by the RT-PCR (compared with positive control).
The used concentration of each compound was chosen to be lower than the LD0 on HepG2 cells. Therefore, 100% viability of HepG2 cells was maintained, to make sure that any inhibitory effect was due to anti-HCV activity rather than cytotoxic activity on HepG2 cells. Moreover, the used concentrations were also chosen to be lower than the LD0 on PBMCs. Consequently, these doses could be used for inhibition of HCV in normal cells infected with the virus.
HepG2 cells were washed twice in RPMI-1640 medium supplemented with 200 μM L-glutamine and […] HEPES buffer. The cells were suspended at 12 × 10^4 cells/ml in RPMI culture medium (RPMI supplemented medium and 10% FBS). The appropriate number of cells to be used was chosen to be 12 × 10^3 cells/well (100 μl of the prepared suspension), and the cells were left to adhere on the polystyrene […] plates in an incubator at 37°C, 5% CO2 and 95% humidity for 24 h. The cells were washed once using RPMI supplemented medium, then infected with 2% HCV-infected serum (the used serum was a pole of ten patients infected with HCV genotype-4 with viral loads: 3.2–9 million IU/ml, G4 HCV RNA) in RPMI culture medium containing 8% FBS. The used dose of each compound was chosen so as to maintain 100% viability of the HepG2 cell line (the dose was lower than the LD0 of each compound on HepG2 cells as calculated from the in vitro anticancer screening). It was reported that, cultured HepG2 cells lost their biotransformation activity due to decrease in cytochrome (CYP) transcription. This waived its effect on the compounds stability during the test. Negative control is HepG2 cells with culture medium without addition of HCV infected serum or addition of tested compounds. Positive control is HepG2 cells with culture medium and infected HCV serum but without addition of tested compounds. After addition of the compounds, the plates were incubated at 37°C, 5% CO2 and 95% humidity for 72 h, followed by RNA extraction. The RNA strand was detected by RT-PCR using HCV-specific primers to the […] region of the virus.
RNA was extracted from HepG2 cells using the method described by El-Awady et al.. Culture cells were mixed with 200 μl of 4 mol/l guanidinium isothiocyanate (Fischer Bioreagents) containing 25 mmol/l sodium citrate (MP Biomedicals, CA, USA), 0.5% sarkosyl (Fischer Bioreagents), 0.1 mol/l β-mercaptoethanol (MP Biomedicals), and 100 μl sodium acetate (Merck). The lysed cells were mixed with an equal volume of phenol, chloroform and isoamyl alcohol (25:24:1, pH 4; Fischer Bioreagents). After vortexing, the mixture was centrifuged (14,000 r.p.m. for 10 min) at 4°C. The aqueous layer was collected and mixed with an equal volume of isopropanol (Acros Organics, Geel, Belgium). After incubation at -20°C overnight, RNA was precipitated by centrifugation (14,000 r.p.m. for 30 min) at 4°C, and the precipitated RNA was washed twice with 70% ethanol. […]

[2] = test system: human peripheral blood mononuclear cells (PBMCs); format: cell-based; settings: 72 h
Protocol: The safe compounds on RBCs (5a-g, 5i-l, 5p-r, 5v-w, 6b-g) were subjected to the in vitro cytotoxicity assay on human peripheral blood mononuclear cells (PBMCs). Viability of cells was measured using neutral red uptake assay as described by Borenfreund and Puerner to determine the concentrations of each compound that were not cytotoxic. The results were interpreted to calculate both the lethal concentration that kills 50% of cells (LD50) and the maximum safe concentration that causes 100% viability (LD0) of each compound using GraphPad InStat 3.0 software (Figure 6 & Supplementary Table 3).
The PBMCs were isolated by density gradient centrifugation technique as described by Boyum. Blood samples were freshly collected into heparinized or ethylenediaminetetraacetic acid sterile tubes. Blood was diluted using equal volume of RPMI-1640 medium containing 25 mM HEPES and then layered over equal volume of Ficoll-Pague™ Plus (Fisher BioReagents™ Lymphocyte Separation Medium-LSM, PA, USA) and centrifuged (2000 r.p.m. for 30 min at acceleration and deceleration speeds zero & zero) at room temperature. The buffy mononuclear cell layer was collected using sterile Pasteur pipette into 50 ml sterile Falcon tube and washed twice in phosphate-buffered saline (Sigma-Aldrich) using centrifugation (1650 r.p.m. for 5 min). The isolated PBMCs viability was determined by hemocytometer count using the trypan blue exclusion method. The PBMCs were resuspended at 1 × 10^6 cells/ml in RPMI-1640 medium containing 25 mM HEPES supplemented with 10% heat-inactivated FBS. The appropriate number of cells was chosen to be 1 × 10^5 cells/well (100 μl of the prepared suspension).
A 2 mg/ml stock solution of each compound was prepared in DMF and filtered using a 0.2 μM syringe filter. The desired concentrations (20, 10, 5, 2.5 and 1.25 μg/ml) were prepared using serial dilution in a 96-well plate. Compound wells were prepared by adding 100 μl of the previously prepared concentrations to a suspension of 1 × 10^5 PBMCs in 100 μl culture media. Parallel concentrations of the solvent were prepared to be used as controls. Control wells were prepared by adding 100 μl culture media to a suspension of 1 × 10^5 PBMCs in 100 μl culture media. Blank wells contained 200 μl of culture media only (without cells or compound solution). Each set of samples was pipetted in duplicate. The plate was then gently shaken then incubated at 37°C, 5% CO2 for 72 h.
After incubation, neutral red assay was performed as described previously, and surviving cell fraction was calculated according to the previously mentioned equation. Also, the results were interpreted to calculate both the lethal concentration that kills 50% of cells (LD50) and the maximum safe concentration that cause 100% viability (LD0) of each compound using GraphPad InStat 3.0 software.

Compound | in vitro anti-HCV activity, in words [1] | Result (anti-HCV screening) [1] | (LD0) PBMCs [2] | LD0 [2] | LD50 [2] | LD50 (PBMCs) [2] | LD0 on PBMCs [2]
CC(=NN=C1SC(=Cc2cn(-c3ccccc3)nc2-c2ccccc2)C(=O)N1c1ccc(Cl)cc1)c1nc2ccccc2[nH]1 [Compound 5p, 2-[1-(1H-Benzimidazole-2-yl)ethylidenehydrazono]-5-[(1,3-Diphenyl-1H-pyrazol-4-yl)methylene]-3-(4-chlorophenyl)thiazolidin-4-one] | showed in vitro anti-HCV activity; also recorded: exhibited in vitro anti-HCV activity | Positive | 12.67 µg/mL | 12.67 µg/mL | 120.46 µg/mL | 120.46 µg/mL | 
CC(=NN=C1SC(=Cc2cn(-c3ccccc3)nc2-c2ccc(Cl)cc2)C(=O)N1c1ccc(Cl)cc1)c1nc2ccccc2[nH]1 [Compound 5q, 2-[1-(1H-Benzimidazole-2-yl)ethylidenehydrazono]-5-{[3-(4-chlorophenyl)-1-phenyl-1H-pyrazol-4-yl]methylene}-3-(4-chlorophenyl)thiazolidin-4-one] |  | Negative | 190.45 µg/mL | 190.45 µg/mL | 1246.96 µg/mL | 1246.96 µg/mL | 
COc1ccc(-c2nn(-c3ccccc3)cc2C=C2SC(=NN=C(C)c3nc4ccccc4[nH]3)N(c3ccc(Cl)cc3)C2=O)cc1 [Compound 5r, 2-[1-(1H-Benzimidazole-2-yl)ethylidenehydrazono]-5-{[3-(4-methoxyphenyl)-1-phenyl-1H-pyrazol-4-yl]methylene}-3-(4-chlorophenyl)thiazolidin-4-one] |  | Negative | 7.33 µg/mL | 7.33 µg/mL | 44.00 µg/mL | 44.00 µg/mL | 
CC(=NN=C1SC(=Cc2cn(-c3ccccc3)nc2-c2ccccc2)C(=O)N1C1CCCCC1)c1nc2ccccc2[nH]1 [Compound 5v, 2-[1-(1H-Benzimidazole-2-yl)ethylidenehydrazono]-5-[(1,3-Diphenyl-1H-pyrazol-4-yl)methylene]-3-cyclohexylthiazolidin-4-one] | showed in vitro anti-HCV activity; also recorded: exhibited in vitro anti-HCV activity | Positive | 13.85 µg/mL | 13.85 µg/mL | 43.40 µg/mL |  | 
CC(=NN=C1SC(=Cc2cn(-c3ccccc3)nc2-c2ccc(Cl)cc2)C(=O)N1C1CCCCC1)c1nc2ccccc2[nH]1 [Compound 5w, 2-[1-(1H-Benzimidazole-2-yl)ethylidenehydrazono]-5-{[3-(4-chlorophenyl)-1-phenyl-1H-pyrazol-4-yl]methylene}-3-cyclohexylthiazolidin-4-one] |  | Negative | 16.03 µg/mL | 16.03 µg/mL | 36.28 µg/mL |  | 
CC(=NN=C1SC(=C2C(=O)Nc3ccccc32)C(=O)N1c1ccc(Cl)cc1)c1cc2ccccc2o1 [Compound 6b, 2-[1-(Benzofuran-2-yl)ethylidenehydrazono]-5-(2-oxoindolin-3-ylidene)-3-(4-chlorophenyl)thiazolidin-4-one] |  | Negative | 18.18 µg/mL | 18.18 µg/mL | 61.46 µg/mL |  | 
COc1ccc(N2C(=O)C(=C3C(=O)Nc4ccccc43)SC2=NN=C(C)c2cc3ccccc3o2)cc1 [Compound 6c, 2-[1-(Benzofuran-2-yl)ethylidenehydrazono]-5-(2-oxoindolin-3-ylidene)-3-(4-methoxyphenyl)thiazolidin-4-one] |  | Negative | 11.41 µg/mL | 11.41 µg/mL | 28.67 µg/mL | 28.67 µg/mL | 
CC(=NN=C1SC(=C2C(=O)Nc3ccccc32)C(=O)N1C1CCCCC1)c1cc2ccccc2o1 [Compound 6d, 2-[1-(Benzofuran-2-yl)ethylidenehydrazono]-5-(2-oxoindolin-3-ylidene)-3-cyclohexylthiazolidin-4-one] |  | Negative | 5.21 µg/mL | 5.21 µg/mL | 14.32 µg/mL | 14.32 µg/mL | 
CC(=NN=C1SC(=C2C(=O)Nc3ccccc32)C(=O)N1c1ccccc1)c1nc2ccccc2[nH]1 [Compound 6e, 2-[1-(1H-Benzimidazole-2-yl)ethylidenehydrazono]-5-(2-oxoindolin-3-ylidene)-3-phenylthiazolidin-4-one] |  | Negative | 19.22 µg/mL | 19.22 µg/mL | 329.03 µg/mL |  | 
CC(=NN=C1SC(=C2C(=O)Nc3ccccc32)C(=O)N1c1ccc(Cl)cc1)c1nc2ccccc2[nH]1 [Compound 6f, 2-[1-(1H-Benzimidazole-2-yl)ethylidenehydrazono]-5-(2-oxoindolin-3-ylidene)-3-(4-chlorophenyl)thiazolidin-4-one] |  | Negative | 253.34 µg/mL | 253.34 µg/mL | 1369.42 µg/mL |  | relatively high LD0 values
COc1ccc(N2C(=O)C(=C3C(=O)Nc4ccccc43)SC2=NN=C(C)c2nc3ccccc3[nH]2)cc1 [Compound 6g, 2-[1-(1H-Benzimidazole-2-yl)ethylidenehydrazono]-5-(2-oxoindolin-3-ylidene)-3-(4-methoxyphenyl)thiazolidin-4-one] |  | Negative | 14.41 µg/mL | 14.41 µg/mL | 136.76 µg/mL |  | 
